From US4001248A, “N-cycloalkylmethyl decahydroisoquinolines” (Eli Lilly and Company, priority 1974, dated 1977)
Values joined by “and” are separate entries in the source; they are usually repeats but may differ in a detail not shown here. Equal entries are not always repeated. Structures can show the parent of a compound that is named as a salt. Where two headings read alike, the source gives them in different places.

Assays:
[1] = test system: writhing in mice induced by the intraperitoneal injection of acetic acid; assay: mouse-writhing test (inhibition of writhing induced by intraperitoneal acetic acid); format: in vivo; settings: for ED50: Mus musculus, read-out: Median inhibiting dose (I.D.50)
From the text: In the Table, column 1 gives the name of the compund; column 2, the dosage in mg./kg. of mouse weight; column 3, the route of administration of the drug ("S.C." is subcutaneous and "or" is oral); and column 4, the percent inhibition found at the particular dose level. […] Median inhibiting doses (I.D.50) are also included in the Table.

rat tail jerk = rat tail jerk assay (increase in reaction time over control); format: in vivo
From the text: The compounds of this invention are also active in the rat tail jerk assay, another standard pharmacologic test for analgesic activity of the opiate-type. Such activity is manifested as an increase in the reaction time of the animal in removing (jerking) its tail from a nearby heat stimulus (a resistance wire) after drug administration compared to control time (no drug administered). Table 2 which follows gives the increased reaction times over control times produced by the compounds of this invention when administered subcutaneously. In Tables 2 and 3, column 1 gives the name of the compound; column 2, the dose; column 3, time of observation after administration of the drug; column 4, the increase in reaction time above control in seconds; and column 5, the level of significance of the results ("p" value). […] All drugs were administered as aqueous solutions. More than one value for a given dose level indicates multiple determinations. The results are not averaged.

morphine = assay: modified rat tail jerk assay, antagonism of morphine; format: in vivo, rats; settings: for minimal effective dose: Rattus norvegicus, morphine 5 mg./kg. subcutaneous
Method: The ability of the compounds of this invention to antagonize the action of morphine, an opiate, is shown by the following modification of the aforementioned rat tail jerk assay: The standard assay procedure is used with the exception that a 7 amps. current is used instead of a 6 amps. current in the hot wire to decrease the measurable agonist effects of the antagonist. The drugs under test are then administered to groups of rats at different dose levels at different times prior to test, with a 5 mg./kg. dose of morphine invariably being administered 10 minutes prior to test. Positive evidence of antagonism is a decreased reaction time over that to be expected from the morphine. […] Among the compounds of this invention, those in which R in Structure I is cyclopropylmethyl are the preferred antagonists, showing activity in the above test procedure. […] In a series of determinations, it was ascertained that the minimum subcutaneous dose necessary to reduce the analgesic effects of a 5 mg./kg. subcutaneous dose of morphine was in the range 2.5-5.0 mg./kg. and the minimum oral dose, 5-10 mg./kg.

toxicity (L.D.50) = format: in vivo, mice; settings: compared with dl mixture; listed as d(+) isomer
[2] = test system: morphine induced Straub tail; assay: blocking of morphine induced Straub tail in mice; format: in vivo; settings: 50 mg./kg. subcutaneous, morphine 40 mg./kg. subcutaneous
Method: In this assay, a 40 mg./kg. dose of morphine was administered to mice 15 minutes prior to assay, and the test drug at various intervals before assay. Trans-dl-1 -cyclopropylmethyl-3a-(m-hydroxyphenyl)-1,2,3,3a,4,5,6,7,7a,8-decahydroisoquinoline maleate gave a 100 percent block of the Straubed tail effected by a subcutaneous injection of 40 mg./kg. of morphine when the test drug was given at a dose of 50 mg./kg. subcutaneously 15 minutes prior to assay, and 80 percent when given 30 minutes prior to assay. The l(-) isomer gave 100 percent blocking on the morphine-induced Straub tail at 50 and 20 mg./kg. doses 15 and 30 minutes before assay.

[3] = subcutaneous, 50 mg./kg., 15 min
[4] = subcutaneous, 50 mg./kg., 30 min
[5] = subcutaneous, 50 mg./kg., 120 min
[6] = subcutaneous, 100 mg./kg., 15 min

## O=C(O)/C=C\C(=O)O.Oc1cccc([C@@]23CCCC[C@H]2CN(CC2CC2)CC3)c1 (stereo in doubt) [Trans-d(+)-1-cyclopropylmethyl-3a-(m-hydroxyphenyl)-1,2,3,3a] [Trans-d(+)-1-cyclopropylmethyl-3a-(m-hydroxyphenyl)-1,2,3,3a,4,5,6,7,7a,8-decahydroisoquinoline maleate]
[1]; 5 mg./kg. S.C., reading at 0.25 hours
  % Inhibition: inact
[1]; 50 mg./kg. S.C., reading at 0.25 hours
  % Inhibition: 44%
[1]; 100 mg./kg. S.C., reading at 0.25 hours
  % Inhibition: 51%
Rat tail jerk; oral, 100 mg./kg., 30 min
  Increase in Reaction Time Over Control: 0 s
Rat tail jerk; oral, 100 mg./kg., 60 min
  Increase in Reaction Time Over Control: 0 s
Rat tail jerk; oral, 100 mg./kg., 120 min
  Increase in Reaction Time Over Control: .40 s
Rat tail jerk; oral, 150 mg./kg., 15 min
  Increase in Reaction Time Over Control: 0 s
Rat tail jerk; oral, 150 mg./kg., 30 min
  Increase in Reaction Time Over Control: 0 s
Rat tail jerk; oral, 150 mg./kg., 60 min
  Increase in Reaction Time Over Control: .35 s
Rat tail jerk; oral, 150 mg./kg., 120 min
  Increase in Reaction Time Over Control: .30 s
Rat tail jerk; oral, 150 mg./kg., 180 min
  Increase in Reaction Time Over Control: .30 s
Rat tail jerk; oral, 200 mg./kg.
  lethality in the rat tail jerk assay: lethal
Rat tail jerk; subcutaneous, 10 mg./kg., 15 min
  Increase in Reaction Time Over Control: 0 s
Rat tail jerk; [3]
  Increase in Reaction Time Over Control: .25 s
Rat tail jerk; [4]
  Increase in Reaction Time Over Control: 1.30 s
Rat tail jerk; subcutaneous, 50 mg./kg., 60 min
  Increase in Reaction Time Over Control: 2.25 s
Rat tail jerk; [5]
  Increase in Reaction Time Over Control: .10 s
Rat tail jerk; [6]
  Increase in Reaction Time Over Control: .50 s
Rat tail jerk; subcutaneous, 100 mg./kg., 30 min
  Increase in Reaction Time Over Control: 1.55 s
Rat tail jerk; subcutaneous, 100 mg./kg., 60 min
  Increase in Reaction Time Over Control: 3.50 s
Rat tail jerk; subcutaneous, 100 mg./kg., 120 min
  Increase in Reaction Time Over Control: 1.15 s
morphine; 100 mg./kg. subcutaneous, 60 minutes before test
  morphine antagonistic effects: shows morphine antagonistic effects
Toxicity (L.D.50)
  toxicity relative to the dl mixture: about the same toxicity as the dl mixture

## Oc1cccc([C@]23CCCC[C@@H]2CN(CC2CC2)CC3)c1 (stereo in doubt) [Trans-dl-1-cyclopropylmethyl-3a-(m-hydroxyphenyl)-1,2,3,3a,4,5,6,7,7a,8-decahydroisoquinoline maleate]
[1]; 2 mg./kg. S.C., reading at 0.5 hours
  % Inhibition: 6%
[1]; 5 mg./kg. S.C., reading at 0.5 hours
  % Inhibition: 66%
[1]; 10 mg./kg. S.C., reading at 0.5 hours
  % Inhibition: 72%
[1]; 20 mg./kg. S.C., reading at 0.5 hours
  % Inhibition: 99%
[1]; 20 mg./kg. oral, reading at 0.5 hours
  % Inhibition: 46%
[1]; 50 mg./kg. oral, reading at 0.5 hours
  % Inhibition: 56%
[1]; 100 mg./kg. S.C., reading at 0.5 hours
  % Inhibition: 100%
[1]; 100 mg./kg. oral, reading at 0.5 hours
  % Inhibition: 92%
[1]; sc, S.C.
  ED50: 2 to 5 mg/kg
[1]; oral
  ED50: 20 to 50 mg/kg
Rat tail jerk; oral, 5 mg./kg., 15 min
  Increase in Reaction Time Over Control: 0 s
Rat tail jerk; oral, 10 mg./kg., 15 min
  Increase in Reaction Time Over Control: .90 s
Rat tail jerk; oral, 15 mg./kg., 15 min
  Increase in Reaction Time Over Control: .95 s
Rat tail jerk; oral, 20 mg./kg., 30 min
  Increase in Reaction Time Over Control: 1.17 s
Rat tail jerk; oral, 20 mg./kg., 45 min
  Increase in Reaction Time Over Control: 1.33 s
Rat tail jerk; oral, 25 mg./kg., 15 min
  Increase in Reaction Time Over Control: 2.10 s
Rat tail jerk; oral, 25 mg./kg., 30 min
  Increase in Reaction Time Over Control: .30 s
Rat tail jerk; oral, 50 mg./kg., 10 min
  Increase in Reaction Time Over Control: 2.83 s and 2.73 s and 2.88 s
Rat tail jerk; oral, 50 mg./kg., 15 min
  Increase in Reaction Time Over Control: 4.25 s and 4.92 s and 5.08 s
Rat tail jerk; oral, 50 mg./kg., 60 min
  Increase in Reaction Time Over Control: 2.42 s
Rat tail jerk; oral, 50 mg./kg., 90 min
  Increase in Reaction Time Over Control: 1.38 s
Rat tail jerk; oral, 50 mg./kg., 120 min
  Increase in Reaction Time Over Control: 1.17 s
Rat tail jerk; oral, 100 mg./kg., 5 min
  Increase in Reaction Time Over Control: .55 s
Rat tail jerk; oral, 100 mg./kg., 10 min
  Increase in Reaction Time Over Control: 2.45 s
Rat tail jerk; oral, 100 mg./kg., 15 min
  Increase in Reaction Time Over Control: 4.85 s and 7.46 s and 4.50 s
Rat tail jerk; oral, 100 mg./kg., 15 min, 20 sec. cut off
  Increase in Reaction Time Over Control: 5.45 s
Rat tail jerk; oral, 100 mg./kg., 30 min
  Increase in Reaction Time Over Control: 3.45 s and 4.05 s and 6.79 s and 4.38 s
Rat tail jerk; oral, 100 mg./kg., 60 min
  Increase in Reaction Time Over Control: 2.05 s
Rat tail jerk; oral, 200 mg./kg., 15 min, 20 sec. cut off
  Increase in Reaction Time Over Control: 7.25 s and 7.13 s
Rat tail jerk; oral, 200 mg./kg., 30 min
  Increase in Reaction Time Over Control: 2.75 s and 1.42 s
Rat tail jerk; oral, 200 mg./kg., 45 min
  Increase in Reaction Time Over Control: 5.79 s
Rat tail jerk; oral, 300 mg./kg., 15 min
  Increase in Reaction Time Over Control: 7.75 s
Rat tail jerk; subcutaneous, 0.5 mg./kg., 15 min
  Increase in Reaction Time Over Control: .75 s
Rat tail jerk; subcutaneous, 1 mg./kg., 15 min
  Increase in Reaction Time Over Control: .50 s
Rat tail jerk; subcutaneous, 2 mg./kg., 15 min
  Increase in Reaction Time Over Control: 2.21 s
Rat tail jerk; subcutaneous, 3 mg./kg., 15 min
  Increase in Reaction Time Over Control: 2.04 s
Rat tail jerk; subcutaneous, 7 mg./kg., 15 min
  Increase in Reaction Time Over Control: 4.25 s
Rat tail jerk; subcutaneous, 20 mg./kg., 15 min
  Increase in Reaction Time Over Control: 5.17 s and 3.70 s
Rat tail jerk; subcutaneous, 25 mg./kg., 15 min
  Increase in Reaction Time Over Control: 4.40 s
Rat tail jerk; subcutaneous, 30 mg./kg., 15 min, 20 sec. cut off
  Increase in Reaction Time Over Control: 4.25 s
Rat tail jerk; subcutaneous, 40 mg./kg., 15 min
  Increase in Reaction Time Over Control: 3.90 s
Rat tail jerk; subcutaneous, 50 mg./kg., 5 min, 15 sec. cut off
  Increase in Reaction Time Over Control: 4.85 s
Rat tail jerk; subcutaneous, 50 mg./kg., 10 min, 15 sec. cut off
  Increase in Reaction Time Over Control: 4.95 s
Rat tail jerk; subcutaneous, 50 mg./kg., 10 min, 20 sec. cut off
  Increase in Reaction Time Over Control: 4.85 s
Rat tail jerk; [3]
  Increase in Reaction Time Over Control: 4.0 s and 5.98 s
Rat tail jerk; subcutaneous, 50 mg./kg., 15 min, 15 sec. cut off
  Increase in Reaction Time Over Control: 6.50 s
Rat tail jerk; subcutaneous, 50 mg./kg., 15 min, 20 sec. cut off
  Increase in Reaction Time Over Control: 6.08 s
Rat tail jerk; [4]
  Increase in Reaction Time Over Control: 5.75 s
Rat tail jerk; subcutaneous, 50 mg./kg., 30 min, 15 sec. cut off
  Increase in Reaction Time Over Control: 5.10 s
Rat tail jerk; subcutaneous, 50 mg./kg., 45 min
  Increase in Reaction Time Over Control: 3.00 s
Rat tail jerk; subcutaneous, 50 mg./kg., 90 min
  Increase in Reaction Time Over Control: 1.85 s
Rat tail jerk; [5]
  Increase in Reaction Time Over Control: 2.45 s
Rat tail jerk; subcutaneous, 50 mg./kg., 180 min
  Increase in Reaction Time Over Control: 1.80 s
Rat tail jerk; subcutaneous, 60 mg./kg., 15 min, 20 sec. cut off
  Increase in Reaction Time Over Control: 4.40 s
Rat tail jerk; [6]
  Increase in Reaction Time Over Control: 4.15 s
Rat tail jerk; subcutaneous, 200 mg./kg., 15 min
  Increase in Reaction Time Over Control: 5.65 s
morphine; 50 mg./kg. subcutaneous, 30 and 60 minutes prior, morphine 5 mg./kg.
  blocking of the analgesic effect of morphine: very effectively blocked the analgesic effect of 5 mg./kg. of morphine
morphine; sc, subcutaneous, read-out: minimum subcutaneous dose necessary to reduce the analgesic effects of morphine
  minimal effective dose: 2.5 to 5 mg/kg
morphine; oral, read-out: minimum oral dose necessary to reduce the analgesic effects of morphine
  minimal effective dose: 5 to 10 mg/kg
morphine; dose not stated
  antagonism of morphine: antagonizes the effects of morphine
[2]; 15 minutes prior
  block of the Straubed tail: 100%
[2]; 30 minutes prior
  block of the Straubed tail: 80%
